Earlier results, collected in patent US5032597A, “Method of using phenylquinolinecarboxylic acids and derivatives for lymthoid leukemia treatment in a mammal” (priority 1987, dated 1991).

Tests used:
liver tissue = settings: cited from earlier work
NF mouse sarcoma = settings: in vitro; cited from earlier work

For `O=C(O)c1cc(-c2ccccc2)nc2ccccc12` [cinchophen, 2-phenyl-4-quinoline carboxylic acid], the “degeneration of liver tissue” value (liver tissue) is given as “can produce a degeneration of liver tissue of a possible precancerous nature” and the tumoricidal effect (NF mouse sarcoma) is given as “no tumoricidal effect”.
